In US20240150293A1, “SPIROCYCLOHEXANE DERIVATIVES, PHARMACEUTICAL COMPOSITIONS CONTAINING THEM AND THEIR USES AS ANTI-APOPTOTIC INHIBITORS” (LES LABORATOIRES SERVIER, priority 2021, published 2024):
Like-named read-outs stand apart in the source and are kept apart here.

Columns and labels:
[1] = tested on: H929 multiple myeloma tumor line; experiment: In vitro cytotoxicity, MTT assay (Example B, Method A); type: cell-based; details: H929 cells, 48 hours exposure, read-out: C50
Procedure: The cytotoxicity studies were carried out on the H929 multiple myeloma tumor line.
The cells are distributed onto microplates and exposed to the test compounds for 48 hours. The cell viability is then quantified by a colorimetric assay, the Microculture Tetrazolium Assay (Carmichael et al, Cancer Res. 1987, 47, 939-942).
The results are expressed in C50 which means concentration corresponding to […] of effect/inhibition.

Mcl-1 protein = Mcl-1 protein (UniProtKB Q07820) (Homo sapiens (Human), UniProt Q07820); experiment: Inhibition of Mcl-1 by the fluorescence polarisation assay (Example A, Method A); type: binding; details: fluorescence polarization assay
Method in brief: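 Protein (5 nM) and fluorescein-tagged peptide tracer (1 nM) incubated with 11-point compound series for 2 h at room temperature in HEPES/NaCl/Tween 20 buffer, pH 7.4, 5% DMSO. Displacement read as decrease in polarisation; IC50 fitted by 4-parameter logistic, converted to Ki (cKi or eKi).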

Sequence of Mcl-1 protein (Q07820 whole entry): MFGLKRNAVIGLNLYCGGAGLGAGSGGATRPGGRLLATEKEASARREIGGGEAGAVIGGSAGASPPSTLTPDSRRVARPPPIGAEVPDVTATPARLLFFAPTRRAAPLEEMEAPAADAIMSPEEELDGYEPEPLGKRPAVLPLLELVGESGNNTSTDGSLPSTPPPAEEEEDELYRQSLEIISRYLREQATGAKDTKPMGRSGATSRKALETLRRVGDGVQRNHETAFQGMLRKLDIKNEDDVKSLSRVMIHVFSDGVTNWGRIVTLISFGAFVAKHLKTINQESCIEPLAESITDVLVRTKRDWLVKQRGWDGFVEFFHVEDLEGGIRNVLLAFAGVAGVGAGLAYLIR

| Ki (Mcl-1 protein) [µM] | SMILES | IC50 ([1]; Homo sapiens, NCI-H929, 48 h) [µM] | IC50 [1] [µM] |
| --- | --- | --- | --- |
| 0.226 | O=C(O)[C@]1(Nc2cccc(Cl)c2)CC[C@@]2(CC1)c1ccccc1CC2CCCOc1ccnc(F)c1 (mixture of isomers) [Example 427, (1r,4r)-4-(3-chloroanilino)-2′-{3-[(2-fluoropyridin-4-yl)oxy]propyl}-2′,3′-dihydrospiro[cyclohexane-1,1′-indene]-4-carboxylic acid] | 17.4 | – |
| 0.0857 | O=C(O)[C@]1(Nc2cccc(Cl)c2)CC[C@@]2(CC1)c1ccccc1CC2CCCOc1ncnc2c1CCC2 (mixture of isomers) [Example 459, (1r,4r)-4-(3-chloroanilino)-2′-{3-[(6,7-dihydro-5H-cyclopenta[d]pyrimidin-4-yl)oxy]propyl}-2′,3′-dihydrospiro[cyclohexane-1,1′-indene]-4-carboxylic acid] | 6.96 | – |
| 0.0754 | O=C(O)[C@]1(Nc2cccc(Cl)c2)CC[C@@]2(CC1)c1ccccc1CC2CCCOc1ncncc1C1CC1 (mixture of isomers) [Example 465, (1r,4r)-4-(3-chloroanilino)-2′-{3-[(5-cyclopropylpyrimidin-4-yl)oxy]propyl}-2′,3′-dihydrospiro[cyclohexane-1,1′-indene]-4-carboxylic acid] | 9.6 | – |
| 0.00337 | CC1CCc2nccc(OC[C@H](C)CC3Cc4ccccc4[C@]34CC[C@@](Nc3cccc(Cl)c3)(C(=O)O)CC4)c21 (mixture of isomers) [Example 602, (1r,4R)-4-(3-chloroanilino)-2′-{(2R)-2-methyl-3-[(5-methyl-6,7-dihydro-5H-cyclopenta[b]pyridin-4-yl)oxy]propyl}-2′,3′-dihydrospiro[cyclohexane-1,1′-indene]-4-carboxylic acid] | 0.518 | – |
| 1.24 | Cc1cccc(C2Cc3ccccc3[C@]23CC[C@@](Nc2cccc(Cl)c2)(C(=O)O)CC3)c1 (single isomer, unassigned) [Example 345, (1r,4r)-4-(3-chloroanilino)-2′-(3-methylphenyl)-2′,3′-dihydrospiro[cyclohexane-1,1′-indene]-4-carboxylic acid] | 30 | – |
| 9.29 | Cc1cccc(C2Cc3ccccc3[C@]23CC[C@@](Nc2cccc(Cl)c2)(C(=O)O)CC3)c1 (single isomer, unassigned) [Example 346, (1r,4r)-4-(3-chloroanilino)-2′-(3-methylphenyl)-2′,3′-dihydrospiro[cyclohexane-1,1′-indene]-4-carboxylic acid] | – | 30 |
| 0.0632 | COc1ccc2c(c1)[C@]1(CC[C@@](Nc3cccc(Cl)c3)(C(=O)O)CC1)C(c1cccc(Oc3ccccc3)c1)C2 (single isomer, unassigned) [Example 378, (1r,4r)-4-(3-chloroanilino)-6′-methoxy-2′-(3-phenoxyphenyl)-2′,3′-dihydrospiro[cyclohexane-1,1′-indene]-4-carboxylic acid] | 9.24 | – |
| 0.0588 | COCCOc1ccc2c(c1)[C@]1(CC[C@@](Nc3cccc(Cl)c3)(C(=O)O)CC1)C(c1cccc(Oc3ccccc3)c1)C2 (single isomer, unassigned) [Example 384, (1r,4r)-4-(3-chloroanilino)-6′-(2-methoxyethoxy)-2′-(3-phenoxyphenyl)-2′,3′-dihydrospiro[cyclohexane-1,1′-indene]-4-carboxylic acid] | 11.4 | – |
| 0.81 | CC(C)COc1ccc2c(c1)[C@]1(CC[C@@](Nc3cccc(Cl)c3)(C(=O)O)CC1)C(c1cccc(Oc3ccccc3)c1)C2 (single isomer, unassigned) [Example 385, (1r,4r)-4-(3-chloroanilino)-6′-(2-methylpropoxy)-2′-(3-phenoxyphenyl)-2′,3′-dihydrospiro[cyclohexane-1,1′-indene]-4-carboxylic acid] | 18.9 | – |
| 0.161 | CCOc1ccc2c(c1)[C@]1(CC[C@@](Nc3cccc(Cl)c3)(C(=O)O)CC1)C(c1cccc(Oc3ccccc3)c1)C2 (single isomer, unassigned) [Example 386, (1r,4r)-4-(3-chloroanilino)-6′-ethoxy-2′-(3-phenoxyphenyl)-2′,3′-dihydrospiro[cyclohexane-1,18′-indene]-4-carboxylic acid] | 7.92 | – |
| 0.22 | CC(C)Oc1ccc2c(c1)[C@]1(CC[C@@](Nc3cccc(Cl)c3)(C(=O)O)CC1)C(c1cccc(Oc3ccccc3)c1)C2 (single isomer, unassigned) [Example 387, (1r,4r)-4-(3-chloroanilino)-2′-(3-phenoxyphenyl)-6′-[(propan-2-yl)oxy]-2′,3′-dihydrospiro[cyclohexane-1,1′-indene]-4-carboxylic acid] | 9.59 | – |
| 6.36 | CC(C)C(COc1ccnc2ccsc12)CC1Cc2ccccc2[C@]12CC[C@@](Nc1cccc(Cl)c1)(C(=O)O)CC2 (single isomer, unassigned) [Example 522, (1r,4r)-4-(3-chloroanilino)-2′-(3-methyl-2-{[(thieno[3,2-b]pyridin-7-yl)oxy]methyl}butyl)-2′,3′-dihydrospiro[cyclohexane-1,1′-indene]-4-carboxylic acid] | 17.1 | – |
| 1.86 | CC(C)C(COc1cccnc1)CC1Cc2ccccc2[C@]12CC[C@@](Nc1cccc(Cl)c1)(C(=O)O)CC2 (single isomer, unassigned) [Example 526, (1r,4r)-4-(3-chloroanilino)-2′-(3-methyl-2-{[(pyridin-3-yl)oxy]methyl}butyl)-2′,3′-dihydrospiro[cyclohexane-1,1′-indene]-4-carboxylic acid] | 30 | – |
| 8.94 | CC(C)C(COc1cccnc1)CC1Cc2ccccc2[C@]12CC[C@@](Nc1cccc(Cl)c1)(C(=O)O)CC2 (single isomer, unassigned) [Example 527, (1r,4r)-4-(3-chloroanilino)-2′-(3-methyl-2-{[(pyridin-3-yl)oxy]methyl}butyl)-2′,3′-dihydrospiro[cyclohexane-1,1′-indene]-4-carboxylic acid] | – | 16.4 |
| 3.28 | CC(C)C(COc1cccnc1)CC1Cc2ccccc2[C@]12CC[C@@](Nc1cccc(Cl)c1)(C(=O)O)CC2 (single isomer, unassigned) [Example 528, (1r,4r)-4-(3-chloroanilino)-2′-(3-methyl-2-{[(pyridin-3-yl)oxy]methyl}butyl)-2′,3′-dihydrospiro[cyclohexane-1,1′-indene]-4-carboxylic acid] | – | 30 |
| 4.31 | CC(C)C(COc1ccccc1)CC1Cc2ccccc2[C@]12CC[C@@](Nc1cccc(Cl)c1)(C(=O)O)CC2 (single isomer, unassigned) [Example 529, (1r,4r)-4-(3-chloroanilino)-2′-[3-methyl-2-(phenoxymethyl)butyl]-2′,3′-dihydrospiro[cyclohexane-1,1′-indene]-4-carboxylic acid] | – | 25.3 |
| 2.05 | CC(C)C(COc1ccccc1)CC1Cc2ccccc2[C@]12CC[C@@](Nc1cccc(Cl)c1)(C(=O)O)CC2 (single isomer, unassigned) [Example 530, (1r,4r)-4-(3-chloroanilino)-2′-[3-methyl-2-(phenoxymethyl)butyl]-2′,3′-dihydrospiro[cyclohexane-1,1′-indene]-4-carboxylic acid] | 15.3 | – |
| 5.97 | CC(C)C(COc1ccccc1)CC1Cc2ccccc2[C@]12CC[C@@](Nc1cccc(Cl)c1)(C(=O)O)CC2 (single isomer, unassigned) [Example 531, (1r,4r)-4-(3-chloroanilino)-2′-[3-methyl-2-(phenoxymethyl)butyl]-2′,3′-dihydrospiro[cyclohexane-1,1′-indene]-4-carboxylic acid] | – | 15.9 |
| 0.809 | CC(C)C(COc1ccncc1)CC1Cc2ccccc2[C@]12CC[C@@](Nc1cccc(Cl)c1)(C(=O)O)CC2 (single isomer, unassigned) [Example 532, (1r,4r)-4-(3-chloroanilino)-2′-(3-methyl-2-{[(pyridin-4-yl)oxy]methyl}butyl)-2′,3′-dihydrospiro[cyclohexane-1,1′-indene]-4-carboxylic acid] | – | 12.6 |
| 0.785 | CC(C)C(COc1ccncc1)CC1Cc2ccccc2[C@]12CC[C@@](Nc1cccc(Cl)c1)(C(=O)O)CC2 (single isomer, unassigned) [Example 533, (1r,4r)-4-(3-chloroanilino)-2′-(3-methyl-2-{[(pyridin-4-yl)oxy]methyl}butyl)-2′,3′-dihydrospiro[cyclohexane-1,1′-indene]-4-carboxylic acid] | – | 14.5 |
| 2.28 | CC(C)C(COc1ccncc1)CC1Cc2ccccc2[C@]12CC[C@@](Nc1cccc(Cl)c1)(C(=O)O)CC2 (single isomer, unassigned) [Example 535, (1r,4r)-4-(3-chloroanilino)-2′-(3-methyl-2-{[(pyridin-4-yl)oxy]methyl}butyl)-2′,3′-dihydrospiro[cyclohexane-1,1′-indene]-4-carboxylic acid] | – | 30 |
| 0.00426 | CC1CCc2nccc(OC[C@H](C)CC3Cc4ccccc4[C@]34CC[C@@](Nc3cccc(Cl)c3)(C(=O)O)CC4)c21 (single isomer, unassigned) [Example 600] | 0.512 | – |
| – | C[C@@H](COc1ccnc2[nH]ccc12)C[C@H]1Cc2ccccc2[C@]12CC[C@@](Nc1cccc(Cl)c1)(C(=O)O)CC2 [Example 626, (1r,2′S,4S)-4-(3-chloroanilino)-2′-{(2R)-2-methyl-3-[(1H-pyrrolo[2,3-b]pyridin-4-yl)oxy]propyl}-2′,3′-dihydrospiro[cyclohexane-1,1′-indene]-4-carboxylic acid] | 0.54 | – |
